Source: patent US11840560B2, “Prodrugs and uses thereof” (Novo Nordisk A/S, priority 2022, dated 2023)
*1 amine or outer side, *2 acyl side, *3 side chain or, on linkers, in order; H or OH if unused. Where a SMILES comes first, the peptide text is derived from it. Side-chain parts run from the residue outwards. [ ]: non-standard residue; d: D form. The star is where a group is joined. N(2-Aminoethyl)Gly = O=C(CN(CCN[*:3])[*:1])[*:2]; C18 diacid = O=C(O)CCCCCCCCCCCCCCCCC(=O)*; C16 diacid = O=C(O)CCCCCCCCCCCCCCC(=O)*; γGlu = O=C(O)[C@H](CCC(=O)[*:2])N[*:1]; εLys = N[C@@H](CCCCN[*:1])C(=O)[*:2]; AEEA = NCCOCCOCC(=O)O; Aib = CC(C)(N)C(=O)O; Sar = CNCC(=O)O

Tests used:
[1] = in vivo; parameters: species or system beagle dogs; settings: dog, po, 300 mg; for Tmax / half-life: male, beagle
Protocol: The purpose of this method is to determine the terminal half-life and plasma exposure in vivo of the compounds of the present invention after p.o. administration to beagle dogs, i.e. the terminal half-life and concentration of test substance that reaches circulation with time. This is done in a pharmacokinetic (PK) study, where these parameters of the compound in question are determined. By terminal half-life is generally meant the period of time it takes to halve a certain plasma concentration, measured after the initial distribution phase.
Tablet compositions comprising the test compounds obtained from Example 1 and SNAC (sodium N-(8-(2-hydroxybenzoyl)amino)caprylate) were prepared according to methods known to the person skilled in the art by mixing test substance with roller compacted SNAC and magnesium stearate as e.g. described in WO 2019/149880. Each tablet was comprised of 7.7 mg magnesium stearate, 2-4 mg of each compound tested, and 300 mg SNAC.
Male beagle dogs, 1-7 years of age and weighing 9-17 kg during the study period, were included in the study. The dogs were dosed in a fasting state. The dogs were group housed in pens (12 hours light: 12 hours dark), and fed individually and restrictedly once daily with Royal Canin Medium Adult dog food (Royal Canin Products, China Branch, or Brogaarden A/S, Denmark). The dogs were used for repeated PK studies with a suitable wash-out period between successive dosing. An appropriate acclimatisation period was given prior to initiation of the first PK study. All handling, dosing, and blood sampling of the animals were performed by trained and skilled staff. Before the studies, the dogs were fasted overnight and from 0 to 4 hours after dosing. The dogs were restricted to water 1 hour before dosing until 4 hours after dosing, but otherwise had adlibitum access to water during the whole period.
The compositions were administered by a single oral dosing to the dogs in groups of 6-8 dogs. The tablets were administered in the following manner: 10 min prior to tablet administration, the dogs may be dosed subcutaneously with approximately 3 nmol/kg of SEQ ID NO.: 7 ([…]), then tablets were placed in the back of the mouth of the dog to prevent chewing. The mouth was then closed, and 10 mL of tap water was given by syringe or gavage to facilitate swallowing of the tablet.
One blood sample was drawn before dosing, and additional samples were drawn at predefined time points after dosing, such as for up to 600 hours, to adequately cover the full plasma concentration-time absorption profile of the test substance. For each blood sample time point, approximately 0.8 mL of whole blood was collected in a 1.5 mL EDTA-coated tube, which was gently turned to mix the sample with EDTA. Blood samples were collected in EDTA buffer (8 mM) and then centrifuged at 4° C. and 2000 g for 10 minutes. Plasma was pipetted into Micronic tubes on dry ice, and kept at −20° C. or lower until analysis. Blood samples were taken as appropriate, for example from a venflon in the cephalic vein in the front leg for the first 2 hours and then with syringe from the jugular vein for the rest of the time points. The first few drops were allowed to drain from the venflon to avoid heparin saline from the venflon in the sample. All blood samples were collected into test tubes containing EDTA for stabilisation and kept on ice until centrifugation. Plasma was separated from whole blood by centrifugation and the plasma was stored at −20° C. or lower until analysis.
The plasma was analysed for test substance using LC-MS (Liquid Chromatography-Mass Spectrometry) as known to the person skilled in the art. […]

[2] = physchem; type: physicochemical; settings: buffer, pH 7.4
Protocol: The assay was performed to investigate the conversion half-life of prodrug to drug of the prodrugs of the invention. The conversion half-life was investigated in vitro at pH 7.4 upon incubation at 37° C.
Test compounds were dissolved to a concentration of 100 μM in phosphate-buffered saline (140 mM NaCl, 2.07 mM KCl, 8.05 mM Na2HPO4, 1.96 mM KH2PO4, pH 7.4). Solution pH was measured after dissolution and adjusted to pH 7.4 with aqueous NaOH if necessary. The solution was filtered through a 0.22 μm syringe filter, then incubated in a water bath at 37° C. Aliquots were withdrawn at defined timepoints, e.g. every 24-72 hours, for LCMS analysis.
LCMS analysis was performed using the procedure defined in LCMS_A above. The AUC of the prodrug, active drug, and DKP were determined using UV detection at 214 nm, and the ratio of prodrug AUC over total AUC of prodrug plus active drug plus DKP was calculated. The negative natural logarithm of this ratio was plotted over time, and a linear regression of this relationship was then performed.
The prodrug to drug conversion half-life of the compounds of the invention was measured as described in General Methods for Measuring Conversion Half-life.

Compound	half-life at 100 μM [2] [h]	AUC/Dose [1] [kg·h/L]	Cmax/Dose [1] [kg/L]	Tmax [1] [h]	half-life [1] [h]
CC[C@H](C)[C@H](NC(=O)[C@H](Cc1ccccc1)NC(=O)[C@H](CCC(=O)O)NC(=O)[C@H](CCCNC(=N)N)NC(=O)[C@H](C)NC(=O)[C@H](C)NC(=O)[C@H](CCC(N)=O)NC(=O)[C@H](CCC(=O)O)NC(=O)[C@H](CCC(=O)O)NC(=O)[C@H](CC(C)C)NC(=O)[C@H](CC(C)C)NC(=O)[C@@H](NC(=O)[C@H](CO)NC(=O)[C@H](Cc1ccc(O)cc1)NC(=O)[C@H](CC(=O)O)NC(=O)[C@H](CO)NC(=O)[C@@H](NC(=O)[C@H](Cc1ccccc1)NC(=O)[C@@H](NC(=O)CNC(=O)[C@H](CCC(=O)O)NC(=O)C(C)(C)NC(=O)[C@@H](N)Cc1ccc(O)cc1)[C@@H](C)O)[C@@H](C)O)[C@@H](C)CC)C(=O)N[C@@H](CCC(=O)O)C(=O)N[C@@H](Cc1c[nH]c2ccccc12)C(=O)N[C@@H](CC(C)C)C(=O)N[C@@H](CC(C)C)C(=O)N[C@@H](C)C(=O)NCC(=O)NCC(=O)N1CCC[C@H]1C(=O)N[C@@H](CO)C(=O)N[C@@H](CCCCNC(=O)[C@@H](N)CCCCNC(=O)[C@@H](N)CCCCNC(=O)CC[C@H](NC(=O)CCCCCCCCCCCCCCCCC(=O)O)C(=O)O)C(=O)NCC(=O)N[C@@H](C)C(=O)N1CCC[C@H]1C(=O)N1CCC[C@H]1C(=O)N1CCC[C@H]1C(=O)N[C@@H](CO)C(=O)O [Parent compound 3] (H-Y[Aib]EGTFTSDYSILLEEQAAREFIEWLLAGGPSK([εLys-εLys-γGlu-C18 diacid])GAPPPS-OH)	–	21.4	0.22	–	–
CC[C@H](C)[C@H](NC(=O)[C@H](CC(C)C)NC(=O)[C@H](Cc1c[nH]c2ccccc12)NC(=O)[C@H](CCC(N)=O)NC(=O)[C@@H](NC(=O)[C@H](Cc1ccccc1)NC(=O)[C@H](C)NC(=O)[C@H](CCCCNC(=O)COCCOCCNC(=O)COCCOCCNC(=O)CC[C@H](NC(=O)CCCCCCCCCCCCCCCCCCC(=O)O)C(=O)O)NC(=O)[C@H](CCC(N)=O)NC(=O)[C@H](C)NC(=O)[C@@H](NC(=O)[C@H](CCCCN)NC(=O)[C@H](CC(=O)O)NC(=O)[C@H](CC(C)C)NC(=O)C(C)(C)NC(=O)[C@@H](NC(=O)[C@H](CO)NC(=O)[C@H](Cc1ccc(O)cc1)NC(=O)[C@H](CC(=O)O)NC(=O)[C@H](CO)NC(=O)[C@@H](NC(=O)[C@H](Cc1ccccc1)NC(=O)[C@@H](NC(=O)CNC(=O)[C@H](CCC(=O)O)NC(=O)C(C)(C)NC(=O)[C@H](Cc1ccc(O)cc1)NC(=O)[C@@H](NC(=O)[C@@H](N)CCCCNC(=O)CC[C@H](NC(=O)CCCCCCCCCCCCCCC(=O)O)C(=O)O)C(C)C)[C@@H](C)O)[C@@H](C)O)[C@@H](C)CC)[C@@H](C)CC)C(C)C)C(=O)N[C@@H](C)C(=O)NCC(=O)NCC(=O)N1CCC[C@H]1C(=O)N[C@@H](CO)C(=O)N[C@@H](CO)C(=O)NCC(=O)N[C@@H](C)C(=O)N1CCC[C@H]1C(=O)N1CCC[C@H]1C(=O)N1CCC[C@H]1C(=O)N[C@@H](CO)C(N)=O [Non-converting compound 4]	–	18.9	0.16	7	136
H-K([γGlu-C16 diacid])VY[Aib]EGTFTSDYSILLEEQAAREFIEWLLAGGPSK([εLys-εLys-γGlu-C16 diacid])GAPPPS-OH [Non-converting compound 2]	–	10.8	0.13	1.3	130
H-A[N(2-Aminoethyl)Gly]([γGlu-C16 diacid])Y[Aib]EGTFTSDYSILLEEQAAREFIEWLLAGGPSK([AEEA-AEEA-γGlu-C16 diacid])GAPPPS-OH [Compound 4]	97	–	–	–	–
CC[C@H](C)[C@H](NC(=O)[C@H](CC(C)C)NC(=O)[C@H](Cc1c[nH]c2ccccc12)NC(=O)[C@H](CCC(N)=O)NC(=O)[C@@H](NC(=O)[C@H](Cc1ccccc1)NC(=O)[C@H](C)NC(=O)[C@H](CCCCNC(=O)COCCOCCNC(=O)COCCOCCNC(=O)CC[C@H](NC(=O)CCCCCCCCCCCCCCCCCCC(=O)O)C(=O)O)NC(=O)[C@H](CCC(N)=O)NC(=O)[C@H](C)NC(=O)[C@@H](NC(=O)[C@H](CCCCN)NC(=O)[C@H](CC(=O)O)NC(=O)[C@H](CC(C)C)NC(=O)C(C)(C)NC(=O)[C@@H](NC(=O)[C@H](CO)NC(=O)[C@H](Cc1ccc(O)cc1)NC(=O)[C@H](CC(=O)O)NC(=O)[C@H](CO)NC(=O)[C@@H](NC(=O)[C@H](Cc1ccccc1)NC(=O)[C@@H](NC(=O)CNC(=O)[C@H](CCC(=O)O)NC(=O)C(C)(C)NC(=O)[C@@H](N)Cc1ccc(O)cc1)[C@@H](C)O)[C@@H](C)O)[C@@H](C)CC)[C@@H](C)CC)C(C)C)C(=O)N[C@@H](C)C(=O)NCC(=O)NCC(=O)N1CCC[C@H]1C(=O)N[C@@H](CO)C(=O)N[C@@H](CO)C(=O)NCC(=O)N[C@@H](C)C(=O)N1CCC[C@H]1C(=O)N1CCC[C@H]1C(=O)N1CCC[C@H]1C(=O)N[C@@H](CO)C(N)=O [Parent compound 5]	–	13.0	0.22	1	134
H-K([γGlu-C16 diacid])VY[Aib]EGTFTSDYSILLEK([εLys-εLys-γGlu-C18 diacid])QAAREFIEWLLAGGPSSGAPPPS-OH [Non-converting compound 3]	–	31.4	0.27	4	115
H-G[N(2-Aminoethyl)Gly]([γGlu-C16 diacid])Y[Aib]EGTFTSDYSILLEK([εLys-εLys-γGlu-C18 diacid])QAAREFIEWLLAGGPSSGAPPPS-OH [Compound 17]	–	30.4	0.30	1.5	105

Second part, led by results:

half-life at 100 μM [2] [h]	Compound	AUC/Dose [1] [kg·h/L]	Cmax/Dose [1] [kg/L]	Tmax [1] [h]	half-life [1] [h]
125	H-K([γGlu-γGlu-C16 diacid])[Sar]Y[Aib]EGTFTSDYSILLEEQAAREFIEWLLAGGPSK([AEEA-AEEA-γGlu-C16 diacid])GAPPPS-OH [Compound 8]	–	–	–	–
440	H-P[N(2-Aminoethyl)Gly]([γGlu-C16 diacid])Y[Aib]EGTFTSDYSILLEEQAAREFIEWLLAGGPSK([AEEA-AEEA-γGlu-C16 diacid])GAPPPS-OH [Compound 6]	–	–	–	–
38	H-D[N(2-Aminoethyl)Gly]([γGlu-C16 diacid])Y[Aib]EGTFTSDYSILLEEQAAREFIEWLLAGGPSK([AEEA-AEEA-γGlu-C16 diacid])GAPPPS-OH [Compound 7]	–	–	–	–
182	H-[dK]([εLys-γGlu-C16 diacid])[Sar]Y[Aib]EGTFTSDYSILLEEQAAREFIEWLLAGGPSK([AEEA-AEEA-γGlu-C16 diacid])GAPPPS-OH [Compound 11]	–	–	–	–
